The values that follow are results of earlier work, collected in patent publication US20190022132A1, “TREATMENT OR PREVENTION OF PULMONARY CONDITIONS WITH CARBON MONOXIDE” (PROTERRIS, INC., priority 2013, published 2019).

Molecules are shown by their SMILES.

For series [1] the following is noted: CO alveolar concentration of 25 ppm.
For series [2] the following is noted: Phase I and Phase II human trials.
The next series has as its system brain. As to conditions: inhalation, rats.
Series [3] deals with models of acute lung injury. As to conditions: early timepoints; effect not sustained beyond the first 6 hours.

Take `[C-]#[O+]` [CO, carbon monoxide]: in series [1], the “time to reach an equilibration point” value is on record as “about 20 hours”. For the same compound, the tolerability entry in series [2] is listed as “well tolerated”. Also, in the series on brain, the “oxidative damage in the brain” value is given as “can cause oxidative damage in the brain”. The “airway neutrophil count and lung injury” value in series [3] is “decrease airway neutrophil count and lung injury at early timepoints”.
